Measurements as given in US7179908B2, “Water-and organic-soluble cucurbituril derivatives, their preparation methods, their separation methods and uses” (Pohang University of Science and Technology Foundation, priority 2001, dated 2007).
Values after ≈ are worked out from the molar mass of the structure shown.

Columns and labels:
[1] = Solubilities of the cucurbituril derivatives in water, methanol, dimethylsulfoxide and acetonitrile; assay type: physicochemical
[2] = Binding constant measured using a microcalorimeter (VP-ITC); details: 0.05 M tris buffered solution pH 7.2
Procedure: A 5.5 mM CB*[5] solution and 110 mM-KCl solution were prepared with 0.05 M tris buffered solution having a pH of 7.2. Then, the binding constant of CB*[5] was measured using a microcalorimeter (VP-ITC, manufactured by MicroCal). As a result, CB*[5] forms a 1:2 complex with potassium ions with a primary binding constant of 2.8×10^4 M^−1 and a secondary binding constant of 1.5×10^2 M^−1. CB*[5] can selectively bind with alkali metal ions, as well as with ammonium ions. The result confirms that cucurbituril derivatives can be used as ion sensors.

With O=C1N2CN3C(=O)N4CN5C(=O)N6CN7C(=O)N8CN9C(=O)N%10CN1C1%11CCCCC21N1CN2C(=O)N(CN%12C(=O)N(CN%13C(=O)N(CN%14C(=O)N(CN%11C1=O)C%101CCCCC9%141)C81CCCCC7%131)C61CCCCC5%121)C41CCCCC321 (stereo not shown) [CB*[5]] the Solubility ([1]; Acetonitrile) was 0.67 mM (≈ 0.738 mg/mL), the Solubility ([1]; Dimethylsulfoxide) was 18 mM (≈ 19.8 mg/mL) and the Solubility ([1]; Methanol) was 31 mM (≈ 34.1 mg/mL). The Solubility ([1]; Water) was 260 mM (≈ 286 mg/mL), the “complex stoichiometry with potassium ions” value [2] was 1:2 complex and the primary binding constant ([2]; potassium ions (KCl)) was 28000 M⁻¹. It also gave a secondary binding constant ([2]; potassium ions (KCl)) of 150 M⁻¹.
